Test results reported in patent US20070004660A1, “Synergistic Modulation of Flt3 Kinase Using Alkylquinolines and Alkylquinazolines” (priority 2005, published 2007).
Read-outs that look alike come from different tables or passages of the source.

Experiments:
Baf3-FLT3 cells = experiment: Cell proliferation assay, single agents and FTI/FLT3 inhibitor combinations, Baf3-FLT3; type: cell-based, murine; details: with single sub-IC50 dose of FLT3 inhibitor Compound A, 100 nM
Procedure: (§1) The cell lines that were tested included those that are dependent on FLT3ITD mutant activity for growth (MV4-11 and Baf3-FLT3ITD), FLT3wt activity for growth (Baf3FLT3) and those that grow independent of FLT3 activity (THP-1). […] Baf3-FLT3 and Baf3-FLT3ITD cell lines were obtained from Dr. Michael Henrich and the Oregon Health Sciences University. The Baf3 FLT3 cell lines were created by stable transfection of parental Baf3 cells (a murine B cell lymphoma line dependent on the cytokine IL-3 for growth) with either wild-type FLT3 or FLT3 containing the ITD insertion in the juxatamembrane domain of the receptor resulting in its constitutive activation. […]
(§2) To statistically evaluate the synergy of a FLT3 inhibitor and an FTI in FLT3 dependent cell lines, dosing combinations were evaluated by the method of Chou and Talalay. See Chou T C, Talalay P. (1984) “Quantitative analysis of dose-effect relationships: the combined effects of multiple drugs or enzyme inhibitors.” Adv Enzyme Regul. […] Using this method, multiple FTI and FLT3 combinations were evaluated. […]
(§3) Cell proliferation assay for MV4-11, Baf3-ITD, Baf3-FLT3 and THP-1 cells. […] Total cell growth is quantified as the difference in luminescent counts (relative light units, RLU) of cell number at Day 0 compared to total cell number at Day 3 (72 hours of growth and/or compound treatment). […]

Baf3-ITD cells = experiment: Cell proliferation assay, single agents and FTI/FLT3 inhibitor combinations, Baf3-ITD; type: cell-based, murine; details: with single sub-IC50 dose of FLT3 inhibitor Compound A, 50 nM
Procedure: as §1, §2, §3

MV4-11 cells = experiment: Annexin V staining (apoptosis) of MV4-11 cells; type: cell-based, human; details: Tipifarnib and FLT3 inhibitor Compound A, fixed ratio 4:1, 48 hours
Procedure: After the compound incubations, treated cells were harvested and stained with Annexin V-PE and 7-AAD using the Guava Nexin apoptosis kit according to the protocol in the Biological Activity Measurements section hereafter. Annexin V staining peaks at 60% because cells late in apoptosis begin to fall apart and are considered debris. […] Statistical analysis using the above described method of Chou and Talalay was also performed to determine the synergy of the combination. FIG. 11b depictes the isobolar analysis of the Tipifarnib and FLT3 inhibitor Compound A combination in inducing annexin V staining. […] The magnitude of the synergistic induction of apoptosis of MV4-11 cells by the combination of an FTI and a FLT3 inhibitor could not be predicted by those skilled in the art. […]
Annexin V Staining. To examine the apoptosis of the leukemic MV4-11 cell line, cells were treated with Tipifarnib and/or FLT3 inhibitor Compound A, and Annexin V binding to phosphotidylserine on the outer leaflet of the plasma membrane of apoptotic cells was monitored using the GuavaNexin assay reagent and the Guava personal flow cytometry system (Guava Technologies; Hayward, Calif.). […] All annexin positive cells were considered apoptotic and percent Annexin positive cells was calculated.

MV-4-11 tumor xenografts [1] = experiment: In vivo combination study, FLT3 inhibitor Compound B and Tipifarnib, MV-4-11 xenografts
Procedure: The effect of combination treatment of the FLT3 Inhibitor FLT3 inhibitors of Formula I′ and Tipifarnib (Zarnestra™) on the growth of MV-4-11 human AML tumor xenografts in nude mice was tested using FLT3 inhibitor Compound B. The in vivo study was designed to extend the in vitro observations to evaluate the potential for a synergistic anti-tumor effect of FLT3 inhibitor Compound B administered orally together with Tipifarnib to nude mice bearing established MV-4-11 tumor xenografts.

MV-4-11 tumor xenografts [2] = tested on: MV-4-11 tumor xenografts
Source text: Dosing was continued for sixteen consecutive days.
Values represent the mean (±sem) of 10 mice per treatment group.

Cn1cncc1C(N)(c1ccc(Cl)cc1)c1ccc2c(c1)c(-c1cccc(Cl)c1)cc(=O)n2C (single isomer, unassigned; (+)) [Tipifarnib, (+)-6-[amino(4-chlorophenyl)(1-methyl-1H-imidazol-5-yl)methyl]-4-(3-chlorophenyl)-1-methyl-2(1H)-quinolinone]
increase in potency of Tipifarnib (Baf3-FLT3 cells): more than 3 fold | increase in potency of Tipifarnib (Baf3-ITD cells): more than 3 fold | shift of EC50 for induction of annexin V staining by the combination (MV4-11 cells): more than eight-fold | effect on tumor volume compared to control (MV-4-11 tumor xenografts [1]; 50 mg/kg po alone, Day 9): not significantly reduced | overt toxicity (MV-4-11 tumor xenografts [1]; 9-day treatment, either agent alone or in combination): No overt toxicity | effect on tumor growth (MV-4-11 tumor xenografts [2]; 50 mg/kg po single agent, 16 days): ineffective | overt toxicity (MV-4-11 tumor xenografts [2]; 16-day treatment, either agent alone or in combination): No overt toxicity
